Experimental data published in patent publication US20230364243A1, “CANCER-SELECTIVE TARGET DEGRADATION BY TARGETING GROUP CAGED PROTACS” (Beth Israel Deaconess Medical Center, Inc., priority 2021, published 2023).
Values belong to the compound of their own block, whether it stands above or below them.

Tests used:
SK-MEL-28 cells = assay: Cell viability of SK-MEL-28 cells (CCK-8); assay type: cell-based; conditions: 72 hours
Protocol: (§1) Cell in 96-well plates were treated with drugs as indicated, and then incubated with 10 μl/well of CCK-8 (cell counting Kit-8) solution at for 1-2 hours, followed by the measurement of optical density at 450 nm.

HT-29 cells = assay: Cell viability of HT-29 cells (CCK-8); assay type: cell-based; conditions: 72 hours
Protocol: as §1

MEK1 and MEK2 = assay: Western blot analysis of MEK1 and MEK2 levels in HT29 and SK-MEL-28 cells; assay type: cell-based
Protocol: (§2) For folic acid competitive degradation assay, cells were pretreated with folic acid (F8758, Sigma-Aldrich, 2.5 mM) for 2 hours, followed by the treatment of indicated PROTACs for indicated time. For endocytosis inhibition, cells were pretreated with Pitostop 2 (SML1169, Sigma-Aldrich, 1-30 μM) or MCD (21633, Cayman, 0.03-1 mM) for 12 hours, followed by co-treatment with indicated PROTACs for another 12 hours. For proteasome or E3 ligase inhibition assay, cells were treated with MG132 (BML-P11020, ENZO Life Sciences, 10 μM) or MLN4924 (S7109, SelleckChem, 1 μM) another 12 hours. For GSH-stimulating assay, cells were treated with S-Acetyl-GSH (29624, Cayman, 1 mM) with indicated PROTACs for 12 or 72 hours.
(§3) Cells were lysed in EBC buffer (50 mM Tris pH 7.5, 120 mM NaCl, 0.5% NP-40) supplemented with protease inhibitors (Pierce) and phosphatase inhibitors (phosphatase inhibitor cocktail set I and II, Calbiochem). The protein concentrations of the lysates were measured using the Bio-Rad protein assay reagent on a Beckman Coulter DU-800 spectrophotometer. The lysates were then resolved by SDS-PAGE and immunoblotted with indicated antibodies.
(§4) Cells were lysed in EBC buffer (50 mM Tris-HCl pH 7.5, 120 mM NaCl and 0.5% NP-40) supplemented with protease inhibitors (Pierce) and phosphatase inhibitors (phosphatase inhibitor cocktailset I and II, Calbiochem). The protein concentrations of the lysates were measured using the Bio-Rad protein assay reagent on a Beckman Coulter DU-800 spectrophotometer. The lysates (40 μg protein) werethen resolved by 10% SDS-olyacrylamide gel electrophoresis (PAGE) at 130 V for 80 min and immunoblotted with indicated antibodies at 4° C. overnight, washed four times with Tris-buffered saline with 0.1% Tween-20 (TBST) buffer, incubated with secondary antibody for 1 hour at room temperature, and then washed 4 times with TBST.

BRD4 = molecular target: T1, BRD4 (Homo sapiens, UniProt O60885); assay: Western blot analysis of BRDs protein levels in HeLa cells; assay type: cell-based
T1 construct: endogenous in cells; host or cells: HeLa

BRDs = assay: Western blot analysis of BRDs in OVCAR-8 ovary cancer cells; assay type: cell-based; conditions: OVCAR-8 cells
Protocol: as §3, §4

IKZF3 [1] = molecular target: T2, IKZF3 (Homo sapiens, UniProt Q96SW2+Q9UKT9); assay: Western blotting of IKZF3 in FOLR1-negative THP-1 cells; assay type: cell-based; design: endogenous in cells; conditions: 12 hours
Protocol: as §4

IKZF3 [2] = molecular target: T2, IKZF3; assay: Western blotting of IKZF3 in MM.1S cells; assay type: cell-based; design: endogenous in cells; host or cells: MM.1S (also MM.1S-CRBN+/+ and CRBN-/-); conditions: for effect on degrading IKZF3 after depletion of endogenous CRBN E3 ubiquitin ligase: CRBN knockout
Protocol: (§5) For folic acid competitive degradation assay, cells were pretreated with folic acid (F8758, Sigma-Aldrich, 2.5 mM) for 2 hours, followed by the treatment of indicated PROTACs for indicated time. […] For proteasome or E3 ligase inhibition assay, cells were treated with MG132 (BML-P11020, ENZO Life Sciences, 10 μM) or MLN4924 (S7109, SelleckChem, 1 μM) another 12 hours.
as §4

IKZF1 = molecular target: T3, IKZF1 (Homo sapiens, UniProt Q13422+Q96SW2); assay: Western blotting of IKZF1 in SU-DHL-1 cells; assay type: cell-based; conditions: FOLR1-positive SU-DHL-1 cells, 12 hours
T3 construct: endogenous in cells; host or cells: SU-DHL-1
Protocol: as §4

IKZF3 [3] = molecular target: T4, IKZF3 (Homo sapiens, UniProt Q9UKT9); assay: Western blotting of IKZF3 in MM.1S cells; assay type: cell-based; conditions: FOLR1-positive MM.1S cells, 12 hours
T4 construct: endogenous in cells; host or cells: MM.1S (also MM.1S-CRBN+/+ and CRBN-/-)
Protocol: as §5, §4

MM.1S cells = assay: Cell viability / proliferation of MM.1S cells (CCK-8); assay type: cell-based; conditions: for IC50: Homo sapiens, MM1.S
Protocol: as §2, §1

HFF-1 cells = assay: Cell viability of HFF-1 normal cells (CCK-8 cell proliferation assay); assay type: cell-based, human; conditions: 72 hours
Protocol: as §1

HeLa cells = assay: Cell viability of HeLa cells (CCK-8 cell proliferation assay); assay type: cell-based; conditions: 72 hours
Protocol: as §1

[4] = molecular target: Flag-tagged cereblon (CRBN) (Homo sapiens, UniProt Q96SW2); assay: Streptavidin pulldown competition with biotinylated pomalidomide for Flag-CRBN; assay type: binding; conditions: for competition with biotinylated-pomalidomide to bind CRBN E3 ubiquitin ligase: caged, inert form, HEK293T cell lysis, 1 hour
Protocol: Streptavadin pull down assays were performed on cell lysis derived from HEK293T (kidney) cells. Cell lysis was incubated with biotin or biotin-POMA, with or without pomalidomide, FA-S2_POMA or FA-C2-POMA for 1 hour. Additionally, some cell lysates had been pretreated with GSH.
The streptavidin pulldown assay for biotin-pomalidomide was performed as previous reported. Briefly, Flag-CRBN was expressed in HEK293T cells lysed in PROTAC buffer B (50 mM Tris-HCl pH7.5, 150 mM NaCl and 0.5% NP-40) supplemented with protease inhibitors (Pierce) and phosphatase inhibitors (phosphatase inhibitor cocktail set I and II, Calbiochem). A total of 1 mg of cell lysate was incubated with 10 μl of 10 mM biotin-pomalidomide and 8 μl of streptavidin beads for 1 hour at 4° C. in the absence or presence of pomalidomide or its derivates. Alternatively, Folate-S2-pomalidomide or Folate-C2-pomalidomide were incubated with 5 mM GSH and then subjected to the competition bindingassay. Then, the beads were washed four times with NETN buffer (20 mM Tris-HCl pH 7.5, pH 8.0, 100 mM NaCl, 1 mM EDTA and 0.5% NP-40), before being resolved by SDS-PAGE and immunoblotted with Flag-tag antibody.

[5] = Release of active compound after incubation with DTT in PBS at 37° C., HPLC analysis; assay type: physicochemical; conditions: DTT (2 equiv), 37° C. in PBS, HPLC
Protocol: FA-S2-POMA and the negative control FA-C2-POMA were incubated with dithiothreitol (DTT) under physiological conditions (37° C. in phosphate buffered saline (PBS)) and then subjected to HPLC analysis.
The effects of these folate caged PROTACS on ALK fusion protein degradation was assessed in cancer cells. FA-S2-MS4048 and FA-C2-MS4048 were incubated with DTT at 37° C. in PBS. […] Furthermore, compared to FA-S2-POMA (FIG. 11B), the release rate of FA-S2-MS4048 is slower.

IC50 (SK-MEL-28 cells): 0.0324 µM
IC50 (HT-29 cells): 0.176 µM
Compound: Cc1ncsc1-c1ccc([C@H](C)NC(=O)[C@@H]2C[C@@H](O)CN2C(=O)[C@@H](NC(=O)CCCCCCCCCCNCCCONC(=O)c2ccc(F)c(F)c2Nc2ccc(I)cc2F)C(C)(C)C)cc1 [MS432, reference compound]

IC50 (HeLa cells): 0.183 µM
Compound: Cc1ncsc1-c1ccc([C@H](C)NC(=O)[C@@H]2C[C@@H](O)CN2C(=O)[C@@H](NC(=O)COCCCOCCNC(=O)C[C@@H]2N=C(c3ccc(Cl)cc3)c3c(sc(C)c3C)-n3c(C)nnc32)C(C)(C)C)cc1 [ARV-771]
IC50 (HFF-1 cells): 1.1 µM

Further lines, the compound ahead of its results:

Compound: Cc1ncsc1-c1ccc([C@H](C)NC(=O)[C@@H]2C[C@@H](OC(=O)CCCCn3cc(CNC(=O)CC[C@H](NC(=O)c4ccc(NCc5cnc6nc(N)[nH]c(=O)c6n5)cc4)C(=O)O)nn3)CN2C(=O)[C@@H](NC(=O)CCCCCCCCCCNCCCONC(=O)c2ccc(F)c(F)c2Nc2ccc(I)cc2F)C(C)(C)C)cc1 [Folate-MS432, N^2-(4-(((2-amino-4-oxo-3,4-dihydropteridin-6-yl)methyl)amino)benzoyl)-N^5-((1-(5-(((3R,5S)-1-((S)-2-(11-((3-((3,4-difluoro-2-((2-fluoro-4-iodophenyl)amino)benzamido)oxy)propyl)amino)undecanamido)-3,3-dimethylbutanoyl)-5-(((S)-1-(4-(4-methylthiazol-5-yl)phenyl)ethyl)carbamoyl)pyrrolidin-3-yl)oxy)-5-oxopentyl)-1H-1,2,3-triazol-4-yl)methyl)-L-glutamine]
IC50 (SK-MEL-28 cells; Homo sapiens): 0.39 µM
IC50 (HT-29 cells; Homo sapiens): 0.436 µM
degradation of MEK1 and MEK2 (MEK1 and MEK2; HT29 and SK-MEL-28 cells, dose- and time-dependent): degraded MEK1 and MEK2
effect in degrading MEK1 and MEK2 after pretreatment of folic acid (MEK1 and MEK2; HT-29 and SK-MEL-28 cells, folic acid pretreatment): blocked the effect
degradation of MEK1/2 after pretreatment with VHL ligand Ac-VHL (MEK1 and MEK2; HT-29 cells, Ac-VHL pretreatment): blocked the degradation of MEK1/2

Compound: Cc1ncsc1-c1ccc([C@H](C)NC(=O)[C@@H]2C[C@@H](NC(=O)CCCCn3cc(CNC(=O)CC[C@H](NC(=O)c4ccc(NCc5cnc6nc(N)[nH]c(=O)c6n5)cc4)C(=O)O)nn3)CN2C(=O)[C@@H](NC(=O)COCCCOCCNC(=O)C[C@@H]2N=C(c3ccc(Cl)cc3)c3c(sc(C)c3C)-n3c(C)nnc32)C(C)(C)C)cc1 [Folate-ARV-771N]
degrading BRDs (BRD4; HeLa cells, even at 100 nM): incapable of degrading BRDs
degradation of BRDs (BRDs): but not Folate-ARV-771N, degraded BRDs

Compound: Nc1cccc2c1C(=O)N(C1CCC(=O)NC1=O)C2=O (stereo not drawn) [pomalidomide, reference compound]
degradation of IKZF3 (IKZF3 [1]): degrade IKZF3 or IKZF1
effect on degrading IKZF3 after depletion of endogenous CRBN E3 ubiquitin ligase (IKZF3 [2]; MM.1S cells): completely abolished the effect
degradation of IKZF1 (IKZF1): degrade IKZF3 or IKZF1
degradation of IKZF3 (IKZF3 [3]): degrade IKZF3 or IKZF1
IC50 (MM.1S cells; 72 hours): 0.058 µM

Compound: Cc1ncsc1-c1ccc([C@H](C)NC(=O)[C@@H]2C[C@@H](OC(=O)CCCCn3cc(CNC(=O)CC[C@H](NC(=O)c4ccc(NCc5cnc6nc(N)[nH]c(=O)c6n5)cc4)C(=O)O)nn3)CN2C(=O)[C@@H](NC(=O)COCCCOCCNC(=O)C[C@@H]2N=C(c3ccc(Cl)cc3)c3c(sc(C)c3C)-n3c(C)nnc32)C(C)(C)C)cc1 [Folate-ARV-771]
effect in degrading BRD4 after pretreatment with endocytosis inhibitor MβCD (BRD4; HeLa cells pretreated with MβCD): efficiently blocked the effect

Compound: Nc1nc2ncc(CNc3ccc(C(=O)N[C@@H](CCC(=O)NCc4cn(CCCCCCOC(=O)N5C(=O)CCC(N6C(=O)c7cccc(N)c7C6=O)C5=O)nn4)C(=O)O)cc3)nc2c(=O)[nH]1 (stereo partly drawn) [FA-C2-POMA, N^5-((1-(6-((3-(4-amino-1,3-dioxoisoindolin-2-yl)-2,6-dioxopiperidine-1-carbonyl)oxy)hexyl)-1H-1,2,3-triazol-4-yl)methyl)-N^2-(4-(((2-amino-4-oxo-3,4-dihydropteridin-6-yl)methyl)amino)benzoyl)-L-glutamine]
competition with biotinylated-pomalidomide to bind CRBN E3 ubiquitin ligase [4]: not compete
degradation of IKZF3 (IKZF3 [3]): ineffective in degrading IKZF3
IC50 (MM.1S cells; 72 hours): 62.3 µM

Compound: Nc1nc2ncc(CNc3ccc(C(=O)N[C@@H](CCC(=O)NCc4cn(CCSSCCOC(=O)N5C(=O)CCC(N6C(=O)c7cccc(N)c7C6=O)C5=O)nn4)C(=O)O)cc3)nc2c(=O)[nH]1 (stereo partly drawn) [FA-S2-POMA, N^5-((1-(2-((2-((3-(4-amino-1,3-dioxoisoindolin-2-yl)-2,6-dioxopiperidine-1-carbonyl)oxy)ethyl)disulfanyl)ethyl)-1H-1,2,3-triazol-4-yl)methyl)-N^2-(4-(((2-amino-4-oxo-3,4-dihydropteridin-6-yl)methyl)amino)benzoyl)-L-glutamine]
effect on degrading IKZF3 with co-treatment of folic acid (IKZF3 [2]; MM.1S cells, 2.5 mM folic acid): effectively antagonized the effect
effect on degrading IKZF3 after depletion of endogenous CRBN E3 ubiquitin ligase (IKZF3 [2]; MM.1S cells): completely abolished the effect
potency in degrading IKZF3 after pretreatment with S-Ac-GSH (IKZF3 [2]; MM.1S cells, S-Ac-GSH 1 mM): significantly increased the potentcy
effect on degradation of IKZF3 with MG132 or MLN4924 (IKZF3 [2]; MM.1S cells, proteasome inhibitor MG132 or neddylation inhibitor MLN4924): blocked the effect
effect on degrading IKZFs with endocytosis inhibitor pitstop 2 or MβCD (IKZF3 [2]; co-treatment with pitstop 2 or methyl-β-cyclodextrin (MβCD)): compromised the effect
degradation of IKZF1 (IKZF1): degraded IKZF3 or IKZF1
competition with biotinylated-pomalidomide to bind CRBN E3 ubiquitin ligase [4]: not compete
release of active pomalidomide upon treatment with reducing agent GSH (pulldown) ([4]; pretreated with GSH): can release pomalidomide
release of pomalidomide after addition of DTT [5]: efficient release of pomalidomide
degradation of IKZF3 (IKZF3 [3]): degraded IKZF3 or IKZF1
IC50 (MM.1S cells; 72 hours): 1 µM
potency in inhibiting proliferation after pretreatment with S-Ac-GSH (MM.1S cells; S-Ac-GSH 1 mM): significantly increased potency
potency for suppression of proliferation with co-treatment of folic acid (MM.1S cells; folic acid co-treatment, 72 hours): significant reduction in potency
